Paper PMC3458792 (Neuron, 2012)
Where a chain is given by its changes, count along the chain named.

What was measured:
Format in all cases: cell-based
[1] = target: GLR-1, STG-2, SOL-1 and SOL-2 (Caenorhabditis elegans, UniProt P34299); assay: two-electrode voltage clamp, Xenopus oocytes, agonist-gated current
GLR-1, STG-1 and SOL-1 = target: T1, GLR-1, STG-1 and SOL-1 (Caenorhabditis elegans, UniProt P34299); assay: patch clamp of C. elegans muscle cells; settings: 100 μM kainate; -60 mV; partial agonist
T1 sequence (P34299 26-962): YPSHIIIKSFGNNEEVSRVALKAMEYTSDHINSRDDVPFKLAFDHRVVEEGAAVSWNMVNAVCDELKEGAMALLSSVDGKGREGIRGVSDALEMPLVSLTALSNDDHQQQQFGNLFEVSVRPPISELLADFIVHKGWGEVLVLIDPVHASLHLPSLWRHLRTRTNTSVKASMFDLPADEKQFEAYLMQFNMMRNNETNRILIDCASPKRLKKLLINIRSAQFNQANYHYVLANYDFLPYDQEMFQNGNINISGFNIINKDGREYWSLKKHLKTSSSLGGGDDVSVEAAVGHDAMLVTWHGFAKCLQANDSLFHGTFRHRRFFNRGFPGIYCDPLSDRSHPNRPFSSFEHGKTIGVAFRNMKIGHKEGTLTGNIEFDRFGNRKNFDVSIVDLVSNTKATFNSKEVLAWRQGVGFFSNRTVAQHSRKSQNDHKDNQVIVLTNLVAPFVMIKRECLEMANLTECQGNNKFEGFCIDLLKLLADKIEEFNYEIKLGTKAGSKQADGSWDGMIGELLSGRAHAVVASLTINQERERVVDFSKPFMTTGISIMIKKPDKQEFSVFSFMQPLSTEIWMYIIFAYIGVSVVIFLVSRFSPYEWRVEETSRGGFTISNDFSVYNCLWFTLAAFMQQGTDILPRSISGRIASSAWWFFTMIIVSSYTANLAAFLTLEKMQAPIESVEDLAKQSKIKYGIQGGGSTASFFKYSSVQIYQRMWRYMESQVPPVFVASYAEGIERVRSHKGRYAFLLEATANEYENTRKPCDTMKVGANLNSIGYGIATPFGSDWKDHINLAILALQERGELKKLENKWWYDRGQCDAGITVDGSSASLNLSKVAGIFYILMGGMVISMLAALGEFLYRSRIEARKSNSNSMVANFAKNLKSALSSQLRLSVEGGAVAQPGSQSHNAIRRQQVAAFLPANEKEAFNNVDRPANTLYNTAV
T1 sequence (Q15KL0 1-366 partner): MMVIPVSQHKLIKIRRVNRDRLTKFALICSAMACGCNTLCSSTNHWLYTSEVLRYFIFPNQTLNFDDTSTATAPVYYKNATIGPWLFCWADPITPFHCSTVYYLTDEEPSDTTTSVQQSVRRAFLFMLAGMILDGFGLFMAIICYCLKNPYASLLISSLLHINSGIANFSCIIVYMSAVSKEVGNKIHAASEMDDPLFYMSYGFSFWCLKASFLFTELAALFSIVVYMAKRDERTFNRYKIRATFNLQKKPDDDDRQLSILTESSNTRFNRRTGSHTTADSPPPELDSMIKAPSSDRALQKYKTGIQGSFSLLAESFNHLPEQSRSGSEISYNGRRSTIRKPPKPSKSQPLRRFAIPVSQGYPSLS
T1 sequence (Q93212 24-594 partner): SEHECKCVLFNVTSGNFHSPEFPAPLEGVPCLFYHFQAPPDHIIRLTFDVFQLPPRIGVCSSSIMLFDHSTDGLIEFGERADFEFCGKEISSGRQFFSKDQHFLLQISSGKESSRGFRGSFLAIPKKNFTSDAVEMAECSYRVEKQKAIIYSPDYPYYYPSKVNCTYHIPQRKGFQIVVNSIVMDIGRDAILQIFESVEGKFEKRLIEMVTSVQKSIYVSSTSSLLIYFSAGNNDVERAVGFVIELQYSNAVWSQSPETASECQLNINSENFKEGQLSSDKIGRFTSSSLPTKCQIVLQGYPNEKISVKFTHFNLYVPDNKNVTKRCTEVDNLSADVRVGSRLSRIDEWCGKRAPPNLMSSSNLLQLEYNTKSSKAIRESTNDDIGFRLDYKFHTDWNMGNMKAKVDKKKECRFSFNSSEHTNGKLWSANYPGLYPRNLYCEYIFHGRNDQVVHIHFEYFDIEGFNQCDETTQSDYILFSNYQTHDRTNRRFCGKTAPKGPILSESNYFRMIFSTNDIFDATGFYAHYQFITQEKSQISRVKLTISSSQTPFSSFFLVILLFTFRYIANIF

[2] = target: GLR-1, STG-1, SOL-1 and SOL-2 (Caenorhabditis elegans, UniProt P34299); assay: patch clamp of C. elegans muscle cells; settings: -60 mV
Chain of GLR-1, STG-1, SOL-1 and SOL-2 (Q9XUU2 19-436 partner, one chain of several): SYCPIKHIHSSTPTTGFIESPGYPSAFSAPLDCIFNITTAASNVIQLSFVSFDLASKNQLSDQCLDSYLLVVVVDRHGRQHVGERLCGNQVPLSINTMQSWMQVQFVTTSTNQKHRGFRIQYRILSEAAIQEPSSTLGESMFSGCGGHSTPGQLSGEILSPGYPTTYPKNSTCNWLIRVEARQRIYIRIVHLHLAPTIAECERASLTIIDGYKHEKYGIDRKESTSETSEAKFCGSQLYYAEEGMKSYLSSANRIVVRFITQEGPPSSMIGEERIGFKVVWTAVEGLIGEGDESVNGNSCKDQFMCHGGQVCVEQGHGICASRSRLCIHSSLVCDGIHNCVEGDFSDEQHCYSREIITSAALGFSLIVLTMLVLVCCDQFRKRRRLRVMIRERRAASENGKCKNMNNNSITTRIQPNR

GLR-1, STG-2 and SOL-1 [3] = target: T2, GLR-1, STG-2 and SOL-1 (Caenorhabditis elegans, UniProt P34299); assay: two-electrode voltage clamp, Xenopus oocytes, agonist-gated current
T2 sequence (P34299 26-962): T1 sequence (P34299 26-962)
T2 sequence (G5EBI8 1-357 partner): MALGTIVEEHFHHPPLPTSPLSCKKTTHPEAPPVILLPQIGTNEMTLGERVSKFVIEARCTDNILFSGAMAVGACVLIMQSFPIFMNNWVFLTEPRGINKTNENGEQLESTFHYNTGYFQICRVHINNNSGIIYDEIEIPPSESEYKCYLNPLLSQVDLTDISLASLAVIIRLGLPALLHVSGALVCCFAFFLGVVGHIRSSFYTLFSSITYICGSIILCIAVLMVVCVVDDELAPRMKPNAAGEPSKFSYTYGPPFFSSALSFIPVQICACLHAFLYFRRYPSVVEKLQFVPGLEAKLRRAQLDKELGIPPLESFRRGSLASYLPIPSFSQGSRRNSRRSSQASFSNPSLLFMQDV
T2 sequence (Q93212 24-594 partner): T1 sequence (Q93212 24-594 partner)

[4] = target: GLR-1, STG-2, SOL-1 and SOL-2 (Caenorhabditis elegans, UniProt P34299, Q552Y); assay: as above; settings: 1 mM glutamate
Chain of GLR-1, STG-2, SOL-1 and SOL-2 (Caenorhabditis elegans, UniProt P34299, Q552Y) (P34299 26-962 Q552Y, one chain of several): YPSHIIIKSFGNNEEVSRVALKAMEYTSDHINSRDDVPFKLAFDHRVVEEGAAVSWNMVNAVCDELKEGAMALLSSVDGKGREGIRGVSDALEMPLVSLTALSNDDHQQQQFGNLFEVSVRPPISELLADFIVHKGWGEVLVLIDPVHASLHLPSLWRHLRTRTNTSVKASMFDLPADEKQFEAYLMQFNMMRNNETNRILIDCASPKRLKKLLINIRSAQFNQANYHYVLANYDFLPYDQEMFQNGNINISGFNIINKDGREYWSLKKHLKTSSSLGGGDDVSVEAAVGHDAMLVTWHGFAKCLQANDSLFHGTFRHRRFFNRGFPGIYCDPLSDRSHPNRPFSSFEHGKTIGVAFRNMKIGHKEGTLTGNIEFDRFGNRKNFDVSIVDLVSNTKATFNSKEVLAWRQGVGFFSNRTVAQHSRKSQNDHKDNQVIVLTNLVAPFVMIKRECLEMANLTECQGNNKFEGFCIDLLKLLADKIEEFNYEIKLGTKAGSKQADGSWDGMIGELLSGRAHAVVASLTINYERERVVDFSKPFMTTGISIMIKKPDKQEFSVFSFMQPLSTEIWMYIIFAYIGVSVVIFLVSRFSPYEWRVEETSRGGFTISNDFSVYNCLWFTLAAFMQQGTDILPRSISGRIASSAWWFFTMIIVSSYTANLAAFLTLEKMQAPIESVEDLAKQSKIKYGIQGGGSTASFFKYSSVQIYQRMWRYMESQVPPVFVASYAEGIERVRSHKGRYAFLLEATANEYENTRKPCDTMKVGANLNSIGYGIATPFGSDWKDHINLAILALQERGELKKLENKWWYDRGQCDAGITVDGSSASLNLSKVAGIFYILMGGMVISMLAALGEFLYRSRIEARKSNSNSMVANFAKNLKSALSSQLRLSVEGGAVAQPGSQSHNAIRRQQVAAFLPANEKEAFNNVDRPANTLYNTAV
Chain of GLR-1, STG-2, SOL-1 and SOL-2 (Caenorhabditis elegans, UniProt P34299, Q552Y) (Q9XUU2 19-436 partner, one chain of several): as the sequence (Q9XUU2 19-436 partner, one chain of several) above

GLR-1, STG-2 and SOL-1 [5] = target: T3, GLR-1, STG-2 and SOL-1 (Caenorhabditis elegans, UniProt P34299, Q552Y); assay: as above; settings: 1 mM glutamate
T3 sequence (P34299 26-962 Q552Y): T1 sequence (P34299 26-962) with Q527Y
T3 sequence (G5EBI8 1-357 partner): T2 sequence (G5EBI8 1-357 partner)
T3 sequence (Q93212 24-594 partner): T1 sequence (Q93212 24-594 partner)

[6] = 100 μM kainate, partial agonist

Chain of GLR-1, STG-2, SOL-1 and SOL-2 (Caenorhabditis elegans, UniProt P34299) (Q9XUU2 19-436 partner, one chain of several): as above

Row | SMILES | two-electrode voltage clamp, Xenopus oocytes, agonist-gated current [1, 6] | patch clamp of C. elegans muscle cells (GLR-1, STG-1 and SOL-1) | patch clamp of C. elegans muscle cells [2, 6] | two-electrode voltage clamp, Xenopus oocytes, agonist-gated current (GLR-1, STG-2 and SOL-1 [3]; [6]) | two-electrode voltage clamp, Xenopus oocytes, agonist-gated current [4] | two-electrode voltage clamp, Xenopus oocytes, agonist-gated current (GLR-1, STG-2 and SOL-1 [5]) | two-electrode voltage clamp, Xenopus oocytes, agonist-gated current ([1]; 1 mM glutamate, agonist) | patch clamp of C. elegans muscle cells ([2]; 3 mM glutamate, agonist) | two-electrode voltage clamp, Xenopus oocytes, agonist-gated current (GLR-1, STG-2 and SOL-1 [3]; 1 mM glutamate, agonist)
1 | C=C(C)[C@H]1CN[C@H](C(=O)O)[C@H]1CC(=O)O [KA, kainate] | The kainate-gated current appeared faster and smaller with co-expression of SOL-2 | the presence of SOL-2 markedly reduced the magnitude of the kainate-gated current | the presence of SOL-2 markedly reduced the magnitude of the kainate-gated current | We recorded both glutamate- and kainate-gated currents from oocytes |  |  |  |  | 
2 | N[C@@H](CCC(=O)O)C(=O)O [Glu, glutamate] |  |  |  |  | there was considerable desensitization when SOL-2 was co-expressed | glutamate-gated current recorded from Xenopus oocytes that expressed GLR-1(Q552Y), STG-2, and SOL-1 did not desensitize | We recorded both glutamate- and kainate-gated currents from oocytes | glutamate-gated currents of approximately the same magnitude and kinetics in transgenic muscles | We recorded both glutamate- and kainate-gated currents from oocytes
